Read-outs that look alike come from different tables or passages of the source.
Key:
[1] = system: HMEC engineered to express c-Myc tagged with EGFP; experiment: 3D spheroid assay, myc-HMEC (CellTiterGlo3D); assay type: cell-based; settings: Homo sapiens
Experimental: (§1) Human mammary epithelial cells (HMEC) were engineered to express either c-Myc tagged with EGFP or EGFP alone (non myc) (analogous but distinct from Kessler J D et al, Science. 2012 Jan. 20; 335(6066):348-53. doi: 10.1126/science.1212728; Hsu T Y et al, Nature. 2015 Sep. 17; 525(7569):384-8. doi: 10.1038/nature14985). The engineered cells were seeded at 1000 (myc) or 4000 (non myc) cells/well in a 384 ultra-low attachment plate in a total volume of 40 μL HMEC cell culture media (DMEM/F12+10% HI-FBS+15 mM HEPES+0.5 ug/ml Hydrocortisone+10 ug/ml Insulin+20 ng/ml EGF). Plates were spun at 1200 rpm for 5 minutes at room temperature to ensure that cells have gathered in the middle of the well and incubated at 37° C. for 48 hrs before firing with compounds. On Day 2 (48 h post seeding) cells were imaged (brightfield and EGFP fluorescence) using the Celigo imaging cytometer prior to firing compounds. For primary screens, compounds were added at three concentrations (1.25, 10 and 30 uM) in a volume of 120 nL using the ECHO acoustic dispenser and spun at 2000 rpm for 2 minutes at room temperature before incubating at 37° C. for 5 days. […] On Day 7, prior to measuring cell viability using CellTiterGlo3D, cells were imaged (brightfield and EGFP fluorescence) on the Celigo imaging cytometer. The CellTiterGlo3D reagent is added at 30 uL/well and incubated at room temperature for 30 mins. After 30 mins of incubation, luminescence readings were recorded using the Perkin Elmer EnVision reader.

GSPT1 [2] = target: T1, GSPT1 (Homo sapiens, UniProt P15170+Q96SW2); experiment: GSPT1 degradation by Compound 345 in cancer cell lines (western blot); assay type: cell-based; parameters: endogenous in cells; host or cells: MM1 S (ATCC CRL-2974); settings: Compound 345 treated NSCLC lines plus Bortezomib 0.2 μM
T1 sequence (P15170 whole entry): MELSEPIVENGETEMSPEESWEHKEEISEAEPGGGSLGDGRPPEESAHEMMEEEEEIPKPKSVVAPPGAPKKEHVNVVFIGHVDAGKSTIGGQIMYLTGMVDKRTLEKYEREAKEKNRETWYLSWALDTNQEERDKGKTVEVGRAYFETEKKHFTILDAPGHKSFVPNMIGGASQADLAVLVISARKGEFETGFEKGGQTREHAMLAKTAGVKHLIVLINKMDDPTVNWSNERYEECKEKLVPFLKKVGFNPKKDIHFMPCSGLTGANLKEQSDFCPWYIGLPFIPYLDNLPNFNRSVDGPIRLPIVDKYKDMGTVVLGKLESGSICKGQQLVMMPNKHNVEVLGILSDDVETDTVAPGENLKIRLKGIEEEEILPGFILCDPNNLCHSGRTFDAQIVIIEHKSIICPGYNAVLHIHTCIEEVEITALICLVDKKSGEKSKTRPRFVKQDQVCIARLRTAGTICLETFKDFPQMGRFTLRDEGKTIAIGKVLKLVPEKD
T1 sequence (Q96SW2 whole entry): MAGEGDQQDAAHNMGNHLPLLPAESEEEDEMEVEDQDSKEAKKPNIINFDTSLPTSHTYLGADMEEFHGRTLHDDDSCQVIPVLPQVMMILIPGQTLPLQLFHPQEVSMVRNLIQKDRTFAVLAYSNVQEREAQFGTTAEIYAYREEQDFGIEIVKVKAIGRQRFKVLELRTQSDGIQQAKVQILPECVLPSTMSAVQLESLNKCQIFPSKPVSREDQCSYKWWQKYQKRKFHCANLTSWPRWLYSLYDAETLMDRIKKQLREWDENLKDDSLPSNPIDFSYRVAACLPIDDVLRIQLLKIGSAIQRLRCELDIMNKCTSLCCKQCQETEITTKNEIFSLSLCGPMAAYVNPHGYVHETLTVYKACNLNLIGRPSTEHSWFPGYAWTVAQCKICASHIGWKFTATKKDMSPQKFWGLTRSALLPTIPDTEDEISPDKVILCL
T1 sequence (Q16531 whole entry partner): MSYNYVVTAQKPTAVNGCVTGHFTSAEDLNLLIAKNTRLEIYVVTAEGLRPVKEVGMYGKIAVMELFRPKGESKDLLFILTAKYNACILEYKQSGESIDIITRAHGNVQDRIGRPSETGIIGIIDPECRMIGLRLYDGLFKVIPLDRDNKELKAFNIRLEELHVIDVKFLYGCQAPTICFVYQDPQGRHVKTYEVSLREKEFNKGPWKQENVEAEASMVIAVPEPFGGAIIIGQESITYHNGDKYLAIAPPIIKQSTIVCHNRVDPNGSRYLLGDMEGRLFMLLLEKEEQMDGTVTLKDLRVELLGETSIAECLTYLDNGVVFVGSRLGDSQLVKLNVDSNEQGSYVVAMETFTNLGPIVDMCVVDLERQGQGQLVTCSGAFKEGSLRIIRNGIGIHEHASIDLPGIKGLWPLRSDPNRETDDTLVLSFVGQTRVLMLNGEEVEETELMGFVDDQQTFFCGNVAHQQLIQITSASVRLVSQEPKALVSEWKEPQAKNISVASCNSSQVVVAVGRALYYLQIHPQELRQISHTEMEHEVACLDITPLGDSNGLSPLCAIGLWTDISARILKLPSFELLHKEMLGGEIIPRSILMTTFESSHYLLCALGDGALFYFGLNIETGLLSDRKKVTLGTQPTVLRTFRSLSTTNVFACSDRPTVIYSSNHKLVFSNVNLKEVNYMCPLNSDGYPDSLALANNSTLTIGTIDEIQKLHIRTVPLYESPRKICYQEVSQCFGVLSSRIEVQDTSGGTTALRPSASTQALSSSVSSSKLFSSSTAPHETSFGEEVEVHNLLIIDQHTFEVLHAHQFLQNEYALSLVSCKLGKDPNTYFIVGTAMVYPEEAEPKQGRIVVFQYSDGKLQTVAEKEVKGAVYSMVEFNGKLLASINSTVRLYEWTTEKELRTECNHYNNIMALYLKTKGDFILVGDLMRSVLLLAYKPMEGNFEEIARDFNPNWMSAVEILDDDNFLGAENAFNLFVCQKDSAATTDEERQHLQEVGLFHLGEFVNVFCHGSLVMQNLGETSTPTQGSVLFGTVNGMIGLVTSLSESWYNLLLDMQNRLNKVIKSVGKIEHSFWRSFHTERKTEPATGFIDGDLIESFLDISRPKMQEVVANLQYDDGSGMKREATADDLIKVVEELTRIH
Experimental: NCI-H1155 and ABC-1 were taken as representative of N-Myc positive NSCLC. NCI-H2023 and NCI-H441 as of N-Myc low representatives. 10A: western blotting analysis performed after 6 (NCI-H1155 and ABC-1) or 24 hr (NCI-H2023 and NCI-H441) posttreatment. […] 10B: corresponding densitometry analyses of GSPT1 normalized to GAPDH. DC50 and Dmax as indicated.
NCI-H1155 and ABC-1 were taken as representative of N-Myc high NSCLC. NCI-H2023 and NCI-H441 as of N-Myc low representatives. Left: densitometry analysis of GSPT1 normalized to GAPDH from western blotting following treatment with Compound 345 (as indicated). Right: 72 hr viability assay following treatment with Compound 345 as assessed by Cell Titer Glo. For both the GSPT1 expression plot and the cell viability plot, two Myc-driven cancer cell lines are represented by upright triangles and diamonds. Two non-Myc-driven cancer cell lines are represented by upside down triangles and circles.
NCI-H1155 and NCI-H2023 were taken as representative of N-Myc high and low NSCLC. 12A: western blot analysis probing for GSPT1 and N-Myc following treatment with Compound 345 (as indicated). Tubulin was used as a loading control. N-Myc could not be detected by western blotting in the NCI-H2023 line. 12B: Single-sample gene set enrichment analysis (ssGSEA) results for a Myc target gene set at 6 hours (left) and 24 hours (right) after treatment. ssGSEA scores were normalized to DMSOs for each cell line and averaged for three replicates. Error bars denote+/−1 s.d. across replicates.
NCI-H1836 and NCI-H1876 were taken as two representatives of L-Myc high SCLC. Western blot analysis probing for GSPT1 and L-Myc following treatment with Compound 345 as indicated. GAPDH was used as a loading control.
FIGS. 16A, 16B and 16C: Activity of Compound 345 in the c-Myc high multiple myeloma MM1S cell line. […] GAPDH was used as a loading control. […] Lenalidomide was used as a benchmark. 16C: Antiproliferative activity of Compound 345 (as indicated) following treatment with Compound 345 for 72 hr as assessed by Cell Titer Glo assay.
(§2) FIGS. 18A, 18B and 18C: Activity of Compound 345 in the c-Myc high WSU-DLCL2 lymphoma cell line. […] GAPDH was used as a loading control. 18B: Antiproliferative activity of Compound 345 (as indicated) following treatment with Compound 345 for 72 hr as assessed by Cell Titer Glo assay. […] Mice were dosed daily PO with vehicle or Compound 345 at 3, 10 mg/kg (as indicated). Tumor volumes were measured twice weekly. X-axis represents the number of days for treatment duration; y-axis represents mean tumor volume (in mm^3)±SEM. CHOP was used as a positive control for this model. Drug-free vehicle is represented by black circles; CHOP combination represented by light squares; Compound 345 3 mg/kg represented by triangles; Compound 345 10 mg/kg represented by dark squares.
as §2, with “19A, 19B,” for “18A, 18B”, “19C:” for “18C:”, “DOHH-2” for “WSU-DLCL2”, “19B:” for “18B:”, “model.” for “model. Drug-free vehicle is represented by black circles; CHOP combination represented by light squares; Compound 345 3 mg/kg represented by triangles; Compound 345 10 mg/kg represented by dark squares.”
Western blot analysis performed 24 hr post treatment initiation. GAPDH was used as a loading control. GSPT1 DC50 and Dmax as indicated.

[3] = target: T2, Full length wild-type cereblon CRBN (Homo sapiens, UniProt Q96SW2); experiment: Fluorescence polarization (FP) assay indicating cereblon binding; settings: read-out: IC50 value
T2 construct: Full length wild-type cereblon CRBN (80.0 nM, 10 μL) was incubated in assay buffer
T2 sequence (Q96SW2 whole entry): as the sequence (Q96SW2 whole entry) above
Method in brief: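 Full-length wild-type CRBN at 80.0 nM was preincubated 30 min at room temperature with compound (12-point curve, 300–0.937 or 3000–9.3 nM) in 20 mM HEPES pH 8.0, 150 NaCl, 0.5 mM TCEP, 0.05% Tween 20. Cy5-type thalidomide-based probe added at 5 nM final; FP read after 12 h (ex 590/em 675 nm), normalized to DMSO, IC50 fitted.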

[4] = system: HMEC engineered to express EGFP alone (non myc); experiment: 3D spheroid assay, non myc-HMEC (CellTiterGlo3D); assay type: cell-based; settings: Homo sapiens, 120 h, 5 days, read-out: 3D spheroid assay Code (EC50, non myc-HMEC assay)
Experimental: as §1

GSPT1 [5] = target: T1, GSPT1; experiment: GSPT1 degradation immunofluorescence assay in CAL-51 cells; assay type: cell-based; parameters: endogenous in cells; host or cells: CAL-51 (DSMZ ACC302); settings: 6 hours, Table 4, read-out: Activity for GSPT1 degradation, Code (DC50)
Method in brief: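 CAL-51 cells on fibronectin treated 6 h with compound (typically 30 μM to 0.1 nM), then fixed, permeabilised and immunostained for GSPT1, with phalloidin and DAPI. High-content imaging gave mean GSPT1 intensity per segmented cell. DC50 from non-linear regression after normalisation to DMSO and CC-885 (10 μM) controls.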

[6] = bounds (codes D and E), read-out: EC50 value
[7] = 120 h, myc-HMEC, 5 days, read-out: 3D spheroid assay Code (EC50, myc-HMEC assay)

SMILES | IC50 ([3]; bounds stated) | EC50 [1, 6] | EC50 [1, 7] | EC50 [4] | further results
CCc1cccc(NC(=O)NCc2ccc3c(c2)C(=O)N(C2CCC(=O)NC2=O)C3)c1 (stereo not shown) [Compound 31] |  | ≤ 2000 nM |  |  | 
CC(C)C[C@H](NC(=O)[C@H](Cc1ccccc1)NC(=O)c1cnccn1)B(O)O [Bortezomib, reference compound] |  |  |  |  | GSPT1 level with proteasome inhibitor added (GSPT1 [2]): rescued GSPT1 from degradation
O=C1CCC(N2Cc3ccc(CNC(=O)Nc4ccc(Cl)c(Cl)c4)cc3C2=O)C(=O)N1 (stereo not shown) [Compound 46] | < 600 nM | ≤ 2000 nM |  |  | 
O=C1CCC(N2Cc3ccc(CNC(=O)Nc4ccc(Br)cc4)cc3C2=O)C(=O)N1 (stereo not shown) [Compound 9] | < 600 nM |  | > 2000 nM | > 10000 nM | IC50 ([3]; bound stated): < 1100 nM; DC50 (GSPT1 [5]): > 300 nM
Cc1ccc(NC(=O)NCc2ccc3c(c2)C(=O)N(C2CCC(=O)NC2=O)C3)cc1C (stereo not shown) [Compound 68] |  | ≤ 2000 nM |  |  | 
O=C1CCC(N2Cc3ccc(CNC(=O)Nc4cccc(C(F)(F)F)c4)cc3C2=O)C(=O)N1 (stereo not shown) [Compound 47] | < 600 nM | ≤ 2000 nM |  |  | 

The next lines start with results.

IC50 ([3]; bounds stated) | SMILES | EC50 [1, 6] | EC50 [1, 7] | EC50 [4] | further results
< 600 nM | COc1ccc(CCNC(=O)NCc2ccc3c(c2)C(=O)N(C2CCC(=O)NC2=O)C3)cc1 (stereo not shown) [Compound 51] |  | > 2000 nM | > 10000 nM | 
< 600 nM | COc1ccccc1CNC(=O)NCc1ccc2c(c1)C(=O)N(C1CCC(=O)NC1=O)C2 (stereo not shown) [Compound 60] |  | > 2000 nM | > 10000 nM | 
< 600 nM | Cc1cc(C)cc(NC(=O)NCc2ccc3c(c2)C(=O)N(C2CCC(=O)NC2=O)C3)c1 (stereo not shown) [Compound 20] | ≤ 2000 nM |  |  | 
< 600 nM | COc1ccc(NC(=O)NCc2ccc3c(c2)C(=O)N(C2CCC(=O)NC2=O)C3)cc1Cl (stereo not shown) [Compound 59] | ≤ 2000 nM |  |  | 

From patent publication US20240261274A1, “TREATMENT OF MYC-DRIVEN CANCERS WITH GSPT1 DEGRADERS” (MONTE ROSA THERAPEUTICS, INC., priority 2021, published 2024)
